The text below walks through data of patent US12384756B2, “Piperidinedione derivatives” (INNOCURE THERAPEUTICS, INC., priority 2021, dated 2025).

Holding throughout (assay type): cell-based
Assay [1] has as its target T1, BRD4 (Homo sapiens, UniProt O60885). As to the kind of experiment: BRD4 degradation by western blot in A549 cells. Further details: BRD4 expressed in cells; endogenous in cells. How it is done: The human lung cancer cell line A549 was purchased from the Korean Cell Line Bank.
5×10^5 cells were seeded for each well of the 6 well plate (SPL company), and the cells were cultured with a total of 1.5 mL of the culture medium volume. The cultured cells were treated with various concentrations (0 nM, 0.1 nM, 0.3 nM, 1 nM, 3 nM, 10 nM, 30 nM, 100 nM, 300 nM, 1000 nM, 3000 nM, 10000 nM) of PROTAC compound according to the present invention and cultured for 24 hours.
For cell lysis, a lysis buffer was added and cell lysate was obtained using a cell scraper.
Specifically, cells were treated with 70 μl of 1×RIPA buffer containing protease inhibitors. Cell lysate was collected on ice using a scraper and incubated for 30 minutes. Then, cells were centrifuged at 4° C. 15,000 rpm for 30 minutes to obtain a cell lysate.
The standard curve was obtained using BCA assay, and the protein mass in the lysate was quantified by substituting the standard curve. The mixture was incubated at 37° C. for 30 minutes using a sample solution of 1 μl and a BCA solution of 200 μl. The absorbance was measured at 562 nm. Samples were prepared by adding a sample buffer to reach 10 μg per well.
SDS-PAGE was conducted by setting a running time of 70 minutes at 110 V in a 4-15% Mini-PROTEAN TGX stain-free gel (15 wells). A transfer was conducted using a trans-blot turbo transfer system (Bio-rad). Blocking was conducted using a blocking-grade blocker (Bio-rad) for 1 hour. Then, it was washed with 1×TBS containing 0.1% tween 20, and reacted with anti-BRD4 antibody (1:3000) or anti-beta-tubulin antibody (1:3000) in bovine serum albumin as a primary antibody at 4° C. for 16 hours. After washing three times for 10 minutes with 1×TBS containing 0.1% tween 20, it was reacted with anti-rabbit antibody (1:10000) in the blotting-grade blocker as a secondary antibody at room temperature for 1 hour. Then, after washing three times for 10 minutes with 1×TBS containing 0.1% tween 20, detection was conducted with SUPERSIGNAL™ WEST PICO PLUS chemiluminescence substrate.
For result analysis, final blot data were obtained using an image analyzer (GE).
DC50^1): DC50 value is calculated by comparing band intensity with that of a sample which is not treated with a PROTAC compound as a controlled group.
DC50^2): DC50 value is calculated by comparing the band intensity relative to that of beta-tubulin with that of the controlled group.
Background: A western blot detects proteins with antibodies after separation by electrophoresis.

For assay [2], the target named is T1, BRD4. As to the kind of experiment: BRD4 protein degradation by western blot in MDA-MB-231 cells. Further details: BRD4 expressed in cells; endogenous in cells; host or cells: MDA-MB-231. The settings on record: MDA-MB-231, 24 hours; for DC50: 50% inhibition of protein expression, read-out: DC50 of BRD4-targeted PROTAC. How it is done: (§1) Human breast cancer cell line [MDA-MB-231] was cultured in RPMI medium with 10% petal bovine serum, penicillin [100 U/ml] and streptomycin [[…]]. The synthesized compound was prepared as a stock solution of 10 mM or 50 mM dissolved in DMSO [dimethyl sulfoxide], and it was sequentially diluted to treat the cell line.
To evaluate the PROTAC's degradation ability to BRD4 expressed in cells, the cells were aliquoted into a 6 well plate at a concentration of 5×10^5 cells/ml, and then the sample was treated for 24 hours. In order to conduct western blotting assay to confirm protein expression, the cell treated with the compound was treated for 30 minutes with 70 μL of RIPA buffer wherein protease inhibitor is added. Then, cell lysate was collected on ice using a scraper and centrifuged at 4° C. 15,000 rpm for 30 minutes to obtain a supernatant containing protein. Then, SDS-PAGE is conducted for 10 μg of protein per each sample, and the protein is transferred to a membrane. The protein is reacted with antibodies of anti-BRD4, anti-tubulin and anti-GAPDH at 4° C. for 16 hours, and then, reacted with secondary antibodies at room temperature for 1 hour. The protein expression is confirmed using SUPERSIGNAL™ WEST PICO PLUS chemiluminescence substrate and image analyzer. The protein expression was normalized based on the expression value of β-tublin or GAPDH. The amount of protein expression in each sample was measured in % based on the sample treated with 0.1% DMSO vehicle which was set to 100%. The amount of protein expression was quantified using the IMAGE J PROGRAM. The change in the amount of protein expression due to the treatment of compound (DC50: the concentration of compounds where the 50% inhibition of protein expression is achieved) was calculated using […] PRISM 8.0 software.

Assay [3] deals with Human breast cancer cell line [MDA-MB-231]. As to the kind of experiment: Anti-proliferative activity (WST-8) of BRD4 targeted PROTAC in MDA-MB-231. The settings on record: Homo sapiens, MDA-MB-231, 72 hours. How it is done:
as §1
In order to observe inhibition of cell growth, cells were aliquoted into concentrations of 5,000 cells/well at 96 well plates, and then were treated with samples prepared at various concentrations for 72 hours. The cell survival was calculated by steps of adding in each well […] of water soluble tetrazolium salt (WST-8) which produces formazon in response to dehydrogenase present in the electron transport chain in mitochondria, incubating for 2 hours, measuring the absorbance at 450 nm, and calculating by GraphicPad Prism 8.0 software.
(Tetrazolium assays rely on reduction of a dye to a coloured formazan, in cell work by metabolically active cells.)

Where [4] appears, read: A549, 24 hours; band intensity compared with untreated control; read-out: DC50 1).
[5] abbreviates: A549, 24 hours; band intensity relative to beta-tubulin compared with control; read-out: DC50 2).
The mark [6] stands for this setting: WST-8, read-out: IC50 of BRD4-targeted PROTAC (cell proliferation).
Where [7] appears, read: read-out: concentration at which cancer cell proliferation is effectively inhibited.

Where two headings read alike, the source gives them in different places.

By DC50 is commonly meant the concentration at which degradation of the target reaches its halfway point. As for `Cc1sc2c(c1C)C(c1ccc(Cl)cc1)=N[C@@H](CC(=O)NCOCCOCCOCCNc1cccc3cnn(C4CCC(=O)NC4=O)c(=O)c13)c1nnc(C)n1-2` (stereo partly drawn) [Ex. 21, 2-((S)-4-(4-chlorophenyl)-2,3,9-trimethyl-6H-thieno[3,2-f][1,2,4]triazolo[4,3-a][1,4]diazepin-6-yl)-N-((2-(2-(2-((3-(2,6-dioxopiperidin-3-yl)-4-oxo-3,4-dihydrophthalazin-5-yl)amino)ethoxy)ethoxy)ethoxy)methyl)acetamide], the 50% degradation concentration (DC50) came out at 1.6 µM on BRD4 [1] (setting [4]) and 0.242 µM on BRD4 [1] (setting [5]).
On to `Cc1sc2c(c1C)C(c1ccc(Cl)cc1)=N[C@@H](CC(=O)Nc1cccc(OCCOCCOCCNc3cccc4cnn(C5CCC(=O)NC5=O)c(=O)c34)c1)c1nnc(C)n1-2` (stereo partly drawn) [Ex. 23, 2-((S)-4-(4-chlorophenyl)-2,3,9-trimethyl-6H-thieno[3,2-f][1,2,4]triazolo[4,3-a][1,4]diazepin-6-yl)-N-(3-(2-(2-(2-((3-(2,6-dioxopiperidin-3-yl)-4-oxo-3,4-dihydrophthalazin-5-yl)amino)ethoxy)ethoxy)ethoxy)phenyl)acetamide], for which, at BRD4 [2], the “BRD4 degradation (in words)” value was “effectively degraded”. In addition, the DC50 at BRD4 [2] worked out at 0.0026 µM; at BRD4 [1] (setting [4]) it was 0.0113 µM; on BRD4 [1] (setting [5]) it was 0.0109 µM. The IC50 is 0.0322 µM in assay [3] (setting [6]) and below 0.25 µM in assay [3] (setting [7]).
Consider `Cc1sc2c(c1C)C(c1ccc(Cl)cc1)=N[C@@H](CC(=O)Nc1ccc(OCCOCCOCCNc3ccc4c(=O)n(C5CCC(=O)NC5=O)ncc4c3)cc1)c1nnc(C)n1-2` (stereo partly drawn) [Ex. 25, 2-((S)-4-(4-chlorophenyl)-2,3,9-trimethyl-6H-thieno[3,2-f][1,2,4]triazolo[4,3-a][1,4]diazepin-6-yl)-N-(4-(2-(2-(2-((2-(2,6-dioxopiperidin-3-yl)-1-oxo-1,2-dihydrophthalazin-6-yl)amino)ethoxy)ethoxy)ethoxy)phenyl)acetamide], for which the IC50 in assay [3] (setting [6]) was determined as 0.232 µM. Also, the figures for the DC50 on BRD4 [1] (setting [4]) and at BRD4 [1] (setting [5]) were 0.0569 µM and 0.0496 µM, respectively.
The corresponding values for `Cc1sc2c(c1C)C(c1ccc(Cl)cc1)=N[C@@H](CC(=O)Nc1ccc(OCCOCCOCCNc3ccc4cnn(C5CCC(=O)NC5=O)c(=O)c4c3)cc1)c1nnc(C)n1-2` (stereo partly drawn) [Ex. 26, 2-((S)-4-(4-chlorophenyl)-2,3,9-trimethyl-6H-thieno[3,2-f][1,2,4]triazolo[4,3-a][1,4]diazepin-6-yl)-N-(4-(2-(2-(2-((3-(2,6-dioxopiperidin-3-yl)-4-oxo-3,4-dihydrophthalazin-6-yl)amino)ethoxy)ethoxy)ethoxy)phenyl)acetamide] are 0.126 µM, 0.022 µM and 0.568 µM.
Consider `Cc1sc2c(c1C)C(c1ccc(Cl)cc1)=N[C@@H](CC(=O)Nc1ccc(OCCOCCOCCOCCNc3cccc4cnn(C5CCC(=O)NC5=O)c(=O)c34)cc1)c1nnc(C)n1-2` (stereo partly drawn) [Ex. 27, 2-[(9S)-7-(4-chlorophenyl)-4,5,13-trimethyl-3-thia-1,8,11,12-tetraazatricyclo[8.3.0.0^2,6]trideca-2(6),4,7,10,12-pentaen-9-yl]-N-[4-(2-{2-[2-(2-{[3-(2,6-dioxopiperidin-3-yl)-4-oxo-3,4-dihydrophthalazin-5-yl]amino}ethoxy)ethoxy]ethoxy}ethoxy)phenyl]acetamide], for which the IC50 in assay [3] (setting [6]) was found to be 0.64 µM. The DC50 on BRD4 [1] (setting [4]) is 0.00921 µM; on BRD4 [1] (setting [5]), 0.0119 µM.
For the molecule `Cc1sc2c(c1C)C(c1ccc(Cl)cc1)=N[C@@H](CC(=O)Nc1ccc(OCCOCCOCCOCCNc3ccc4c(=O)n(C5CCC(=O)NC5=O)ncc4c3)cc1)c1nnc(C)n1-2` (stereo partly drawn) [Ex. 28, 2-((S)-4-(4-chlorophenyl)-2,3,9-trimethyl-6H-thieno[3,2-f][1,2,4]triazolo[4,3-a][1,4]diazepin-6-yl)-N-(4-(2-(2-(2-(2-((2-(2,6-dioxopiperidin-3-yl)-1-oxo-1,2-dihydrophthalazin-6-yl)amino)ethoxy)ethoxy)ethoxy)ethoxy)phenyl)acetamide], at BRD4 [2], the “BRD4 degradation (in words)” value is on record as “effectively degraded”. Also, the DC50 is 0.0033 µM at BRD4 [2], 0.0253 µM at BRD4 [1] (setting [4]) and 0.299 µM at BRD4 [1] (setting [5]). Also, the IC50 in assay [3] (setting [6]) is 0.0331 µM; in assay [3] (setting [7]), below 0.25 µM.
